Source: patent US12325697B2 (Nimbus Clio, Inc., priority 2021, dated 2025)

Columns and labels:
[1] = molecular target: Recombinant human Cbl-b (aa 36-427) (Homo sapiens (Human), UniProt Q13191); experiment: Cbl-b Biochemical Assay (TR-FRET); details: read-out: TR-FRET hCbl-b IC50
How it was run: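 Two-step TR-FRET: 6 nM biotinylated Cbl-b preincubated 30-60 min with compound, then 60 min at RT with 1-2.5 nM Src-Zap70 and 0.5 mM ATP in HEPES pH 7.0 buffer, 1% DMSO. Stopped with 5 mM EDTA plus 100 nM UBE2D2-Ub-FL-BODIPY and 1 nM streptavidin-Tb, 60 min; 520 nm signal; IC50 from 4-parameter fit.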

[2] = tested on: Jurkat (clone E6-1) cells, NFAT luciferase reporter; experiment: Jurkat Reporter Assay (NFAT Luciferase); type: cell-based; details: Homo sapiens, anti-CD3 stimulation, 6 hr, read-out: Jurkat NFAT EC50
[3] = tested on: Phospho-Zap70 (Y-319) in Jurkat wild-type (clone E6-1) cells; experiment: Jurkat pZAP70 HTRF Assay; type: cell-based; details: Homo sapiens, anti-CD3 5 μg/ml, 3 hr, read-out: ZAP70 Jurkat EC50

Sequence of Recombinant human Cbl-b (aa 36-427) (Q13191 36-427): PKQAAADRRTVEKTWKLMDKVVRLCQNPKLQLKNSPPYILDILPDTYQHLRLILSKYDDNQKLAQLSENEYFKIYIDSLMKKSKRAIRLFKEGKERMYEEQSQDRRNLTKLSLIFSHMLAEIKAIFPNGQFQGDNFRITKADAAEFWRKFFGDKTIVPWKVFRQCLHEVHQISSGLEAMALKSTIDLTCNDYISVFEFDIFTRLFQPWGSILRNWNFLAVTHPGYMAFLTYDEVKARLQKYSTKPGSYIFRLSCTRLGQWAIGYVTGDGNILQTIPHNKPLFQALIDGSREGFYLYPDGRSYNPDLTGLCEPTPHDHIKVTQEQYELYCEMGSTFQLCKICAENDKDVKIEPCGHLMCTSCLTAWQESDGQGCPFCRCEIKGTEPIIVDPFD

SMILES	IC50 [1] [nM]	EC50 [2] [nM]	EC50 [3] [nM]
CCOc1cc(-c2ccc(F)cc2-c2nncn2C)cc(N2Cc3ccc(CNCC4(O)CCC4)cc3C2=O)n1 [AGR-1, 2-{6-Ethoxy-4-[4-fluoro-2-(4-methyl-1,2,4-triazol-3-yl)phenyl]pyridin-2-yl}-6-({[(1-hydroxycyclobutyl)methyl]amino}methyl)-3H-isoindol-1-one]	≤ 200	< 200	< 200
CCNc1cc(-c2ccc(F)cc2-c2nncn2C)cc(N2Cc3c(cc(COCC4(N)CCC4)cc3C(F)(F)F)C2=O)n1 [AGS-2]	≤ 200	< 200	< 200
Cn1cnnc1-c1cc(C#N)ccc1-c1cc(C2CC2)nc(N2Cc3ccc(CNCCOC(F)(F)F)cc3C2=O)c1 [AGT-3, 4-{2-Cyclopropyl-6-[1-oxo-6-({[2-(trifluoromethoxy)ethyl]amino}methyl)-3H-isoindol-2-yl]pyridin-4-yl}-3-(4-methyl-1,2,4-triazol-3-yl)benzonitrile]	≤ 200	< 200	< 200
Cn1cnnc1-c1cc(Cl)ccc1-c1cccc(N2Cc3ccc(CNCC4(O)CCCC4)cc3C2=O)c1 [AGU-10, 2-[4′-Chloro-2′-(4-methyl-1,2,4-triazol-3-yl)-[1,1′-biphenyl]-3-yl]-6-({[(1-hydroxycyclopentyl)methyl]amino}methyl)-3H-isoindol-1-one]	≤ 200	< 200	< 200
Cn1cnnc1-c1cc(Cl)ccc1-c1cccc(N2Cc3ccc(CNCC4(O)CCC4)cc3C2=O)c1 [AGV-1, 2-[4′-Chloro-2′-(4-methyl-1,2,4-triazol-3-yl)-[1,1′-biphenyl]-3-yl]-6-({[(1-hydroxycyclobutyl)methyl]amino}methyl)-3H-isoindol-1-one]	≤ 200	< 200	< 200
Cn1cnnc1-c1cc(Cl)ccc1-c1cc(C2CC2)nc(N2Cc3ccc(CNCC4(O)CCC4)cc3C2=O)c1 [AGW-6, 2-{4-[4-Chloro-2-(4-methyl-1,2,4-triazol-3-yl)phenyl]-6-cyclopropylpyridin-2-yl}-6-({[(1-hydroxycyclobutyl)methyl]amino}methyl)-3H-isoindol-1-one]	≤ 200	< 200	< 200
CNCc1cc2c(c(C(F)(F)F)c1)CN(c1cc(-c3ccc(C#N)cc3-c3nncn3C)cc(C3CC3)n1)C2=O [AGZ-1, 4-(2-Cyclopropyl-6-{6-[(methylamino)methyl]-1-oxo-4-(trifluoromethyl)-3H-isoindol-2-yl}pyridin-4-yl)-3-(4-methyl-1,2,4-triazol-3-yl)benzonitrile]	≤ 200	< 200	< 200
Cn1cnnc1-c1cc(F)ccc1-c1cccc(N2Cc3ccc(CNCC4(O)CCC4)cc3C2=O)c1 [AHA-2, 2-(4′-Fluoro-2′-(4-methyl-4H-1,2,4-triazol-3-yl)-[1,1′-biphenyl]-3-yl)-6-((((1-hydroxycyclobutyl)methyl)amino)methyl) isoindolin-1-one]	≤ 200	< 200	200 to 1000
Cn1cnnc1-c1cc(F)ccc1-c1cccc(N2Cc3ccc(CNCC4(O)CCCC4)cc3C2=O)c1 [AHB-1, 2-(4′-Fluoro-2′-(4-methyl-4H-1,2,4-triazol-3-yl)-[1,1′-biphenyl]-3-yl)-6-((((1-hydroxycyclopentyl)methyl)amino)methyl) isoindolin-1-one]	≤ 200	< 200	< 200
Cn1cnnc1-c1cc(C#N)ccc1-c1cc(C2CC2)nc(N2Cc3ccc(CN[C@@H]4CCC[C@@H]4O)cc3C2=O)c1 [AHC-1, 4-{2-cyclopropyl-6-[6-({[(1R,2S)-2-hydroxycyclopentyl]amino}methyl)-1-oxo-3H-isoindol-2-yl]pyridin-4-yl}-3-(4-methyl-1,2,4-triazol-3-yl)benzonitrile]	≤ 200	< 200	< 200
Cn1cnnc1-c1cc(F)ccc1-c1cc(C2CC2)nc(N2Cc3ccc(CNCC(C)(C)O)cc3C2=O)c1 [AHG-2, 2-{6-Cyclopropyl-4-[4-fluoro-2-(4-methyl-1,2,4-triazol-3-yl)phenyl]pyridin-2-yl}-6-{[(2-hydroxy-2-methylpropyl)amino]methyl}-3H-isoindol-1-one]	≤ 200	< 200	< 200
Cn1cnnc1-c1cc(F)ccc1-c1cc(C2CC2)nc(N2Cc3ccc(CNCC4CCCC4)cc3C2=O)c1 [AHH-3, 6-{[(Cyclopentylmethyl)amino]methyl}-2-{6-cyclopropyl-4-[4-fluoro-2-(4-methyl-1,2,4-triazol-3-yl)phenyl]pyridin-2-yl}-3H-isoindol-1-one]	≤ 200	< 200	< 200
CN1CC[C@@H](COCc2cc3c(c(C(F)(F)F)c2)CN(c2cc(-c4ccc(F)cc4-c4nncn4C)cc(C4CC4)n2)C3=O)C1 [AHI-4, 2-{6-Cyclopropyl-4-[4-fluoro-2-(4-methyl-1,2,4-triazol-3-yl)phenyl]pyridin-2-yl}-6-({[(3R)-1-methylpyrrolidin-3-yl]methoxy}methyl)-4-(trifluoromethyl)-3H-isoindol-1-one]	≤ 200	< 200	200 to 1000
Cn1cnnc1-c1cc(F)ccc1-c1cc(C2CC2)nc(N2Cc3c(cccc3C(F)(F)F)C2=O)c1 [AND-2, 2-{6-Cyclopropyl-4-[4-fluoro-2-(4-methyl-1,2,4-triazol-3-yl)phenyl]pyridin-2-yl}-4-(trifluoromethyl)-3H-isoindol-1-one]	≤ 200	200 to 1000	1000 to 10000
Cn1cnnc1-c1ccccc1-c1cccc(N2Cc3c(cc(CNCC4(O)CCC4)cc3C(F)(F)F)C2=O)c1 [AW-2, 6-((((1-Hydroxycyclobutyl)methyl)amino)methyl)-2-(2′-(4-methyl-4H-1,2,4-triazol-3-yl)-[1,1′-biphenyl]-3-yl)-4-(trifluoromethyl)isoindolin-1-one]	≤ 200	< 200	< 200
Cn1cnnc1-c1ccccc1-c1cccc(N2Cc3c(cc(CNCC(C)(C)O)cc3C(F)(F)F)C2=O)c1 [AZ-2, 6-(((2-Hydroxy-2-methylpropyl)amino)methyl)-2-(2′-(4-methyl-4H-1,2,4-triazol-3-yl)-[1,1′-biphenyl]-3-yl)-4-(trifluoromethyl)isoindolin-1-one]	≤ 200	< 200	< 200
